The assay addresses Sodium channel protein type 9 subunit alpha (Homo sapiens, UniProt Q15858). Briefly: In Vitro Electrophysiology: Electrophysiological studies are performed with an IonWorks Quattro (Molecular Devices Corp.) automated patch-clamp electrophysiology platform as described by (Schroeder K et al. Journal of Biomolecular Screening 2003, 8 (1), 50-64). Buffers for the experiments have the following composition (mM): Internal solution; K-gluconate 100, KCl 40, MgCl2 3.2, HEPES 5, EGTA 3, pH 7.3. To this amphotericin B is added to final concentration of 0.1 mg/ml to generate access solution. External solution; Dulbecco's Phosphate buffered saline (D-PBS) NaCl 137.93, KCl 2.67, KH2PO4 1.47, Na2HPO4 8.06, CaCl2 0.90, MgCl2 0.49. Prior to the experiment the cells expressing the voltage-gated ion channel of interest are detached from the tissue culture flasks, centrifuged and resuspended in D-PBS. Compounds are prepared and serially diluted in DMSO and finally diluted 1:100 in D-PBS. Cells are exposed to compounds through the pipetting system integrated into the platform and the voltage-gated ion channel of interest is activated with specific voltage stimulation protocols. The following voltage stimulation protocol is used for testing compounds against the voltage-gated sodium channel Nav1.7; from a holding potential of −100 mV a train of eight 60 ms depolarising steps to −20 mV at a frequency of 14 Hz are employed followed by a further step to −20 mV for 2000 ms. […]. On the technique in general: The patch-clamp technique gives a direct electrical read-out from membranes.

What is called IC50 is the point on the concentration scale where inhibition reaches its midpoint. Lower therefore signals inhibition by little substance.

Structures are written as SMILES.

Sodium channel protein type 9 subunit alpha, sequence (Q15858 whole entry): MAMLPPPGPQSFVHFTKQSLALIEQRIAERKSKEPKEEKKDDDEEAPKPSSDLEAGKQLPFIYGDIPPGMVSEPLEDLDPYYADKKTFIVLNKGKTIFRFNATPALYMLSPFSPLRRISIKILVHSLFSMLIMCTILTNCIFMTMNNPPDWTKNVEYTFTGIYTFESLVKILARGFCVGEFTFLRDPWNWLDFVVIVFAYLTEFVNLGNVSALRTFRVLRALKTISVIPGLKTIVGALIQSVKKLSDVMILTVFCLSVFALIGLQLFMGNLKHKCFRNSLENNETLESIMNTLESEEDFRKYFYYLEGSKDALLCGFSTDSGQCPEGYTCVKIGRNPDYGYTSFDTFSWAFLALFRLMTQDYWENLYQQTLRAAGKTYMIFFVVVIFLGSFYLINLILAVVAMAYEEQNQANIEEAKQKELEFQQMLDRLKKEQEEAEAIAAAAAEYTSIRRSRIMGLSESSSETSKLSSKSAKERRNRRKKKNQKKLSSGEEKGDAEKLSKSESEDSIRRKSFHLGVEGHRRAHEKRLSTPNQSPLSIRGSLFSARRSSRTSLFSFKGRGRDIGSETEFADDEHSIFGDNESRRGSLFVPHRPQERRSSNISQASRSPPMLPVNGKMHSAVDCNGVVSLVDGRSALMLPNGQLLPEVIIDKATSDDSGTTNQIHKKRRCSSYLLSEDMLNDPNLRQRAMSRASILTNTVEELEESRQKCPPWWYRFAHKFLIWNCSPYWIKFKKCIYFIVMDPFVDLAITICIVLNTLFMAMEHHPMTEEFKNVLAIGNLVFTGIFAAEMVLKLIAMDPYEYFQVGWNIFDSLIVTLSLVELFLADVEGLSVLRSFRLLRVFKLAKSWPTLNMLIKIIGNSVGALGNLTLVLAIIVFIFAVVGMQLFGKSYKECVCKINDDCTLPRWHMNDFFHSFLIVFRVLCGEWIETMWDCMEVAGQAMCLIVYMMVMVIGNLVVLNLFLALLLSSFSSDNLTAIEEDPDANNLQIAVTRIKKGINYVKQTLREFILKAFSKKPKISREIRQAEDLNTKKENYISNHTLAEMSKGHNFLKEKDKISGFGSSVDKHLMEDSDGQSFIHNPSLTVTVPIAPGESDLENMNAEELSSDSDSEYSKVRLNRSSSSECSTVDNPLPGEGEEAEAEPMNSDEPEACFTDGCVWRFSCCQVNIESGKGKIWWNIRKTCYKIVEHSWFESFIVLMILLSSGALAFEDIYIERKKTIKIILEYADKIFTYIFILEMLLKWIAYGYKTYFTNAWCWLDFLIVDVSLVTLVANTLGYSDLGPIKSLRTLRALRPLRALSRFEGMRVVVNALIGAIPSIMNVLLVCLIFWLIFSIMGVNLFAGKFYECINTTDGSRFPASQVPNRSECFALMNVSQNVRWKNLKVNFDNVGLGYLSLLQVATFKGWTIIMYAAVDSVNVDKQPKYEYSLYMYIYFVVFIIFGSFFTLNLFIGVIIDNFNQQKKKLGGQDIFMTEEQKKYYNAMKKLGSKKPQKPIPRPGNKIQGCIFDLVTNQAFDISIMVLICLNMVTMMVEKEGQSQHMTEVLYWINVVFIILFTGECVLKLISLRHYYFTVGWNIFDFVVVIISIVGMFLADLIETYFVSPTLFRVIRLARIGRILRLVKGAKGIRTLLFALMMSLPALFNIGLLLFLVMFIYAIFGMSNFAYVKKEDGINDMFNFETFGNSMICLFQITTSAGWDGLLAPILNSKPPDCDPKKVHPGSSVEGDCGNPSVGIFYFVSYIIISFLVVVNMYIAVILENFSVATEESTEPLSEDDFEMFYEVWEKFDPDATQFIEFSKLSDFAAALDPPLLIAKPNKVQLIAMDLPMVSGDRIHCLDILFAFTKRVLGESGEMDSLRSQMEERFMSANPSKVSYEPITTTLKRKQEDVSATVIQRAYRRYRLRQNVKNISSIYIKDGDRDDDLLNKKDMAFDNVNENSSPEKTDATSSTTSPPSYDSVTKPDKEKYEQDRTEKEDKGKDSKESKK

In turn, `COc1cccc(-c2ccc3c(N)nn(C)c3c2)c1OCC(F)F` registered an IC50 of 1070 nM.

On to `COc1ccc(OCC(F)(F)C(F)(F)F)c(-c2ccc3c(N)nn(C)c3c2)c1`, for which inhibition was half-maximal at 1230 nM (IC50).

These data come from ChEMBL document CHEMBL5726143, “Aminoindazole derivatives as sodium channel inhibitors” (2019).
